In ChEMBL document CHEMBL4699460, “Integrating DNA-encoded chemical libraries with virtual combinatorial library screening: Optimizing a PARP10 inhibitor” (Bioorg Med Chem Lett, 2020):

Experiments:
[1] = target: Poly [ADP-ribose] polymerase 2 (Homo sapiens) (UniProt Q9UGN5); assay: (§1) Inhibition of N-terminal GST tagged human PARP2 (2 to 583 residues) expressed in baculovirus infected Sf9 cells assessed as reduction in NAD+-dependent ADP ribosylation using histone as substrate at 10 uM incubated for 1 hr in presence of biotinylated NAD+ and activated DNA by chemiluminescence based microplate reader assay relative to control
[2] = target: T1, Protein mono-ADP-ribosyltransferase PARP11 (Homo sapiens) (UniProt Q9NR21); assay: as §1, with “PARP11 (8” for “PARP2 (2”, “338” for “583”
T1 sequence (whole entry): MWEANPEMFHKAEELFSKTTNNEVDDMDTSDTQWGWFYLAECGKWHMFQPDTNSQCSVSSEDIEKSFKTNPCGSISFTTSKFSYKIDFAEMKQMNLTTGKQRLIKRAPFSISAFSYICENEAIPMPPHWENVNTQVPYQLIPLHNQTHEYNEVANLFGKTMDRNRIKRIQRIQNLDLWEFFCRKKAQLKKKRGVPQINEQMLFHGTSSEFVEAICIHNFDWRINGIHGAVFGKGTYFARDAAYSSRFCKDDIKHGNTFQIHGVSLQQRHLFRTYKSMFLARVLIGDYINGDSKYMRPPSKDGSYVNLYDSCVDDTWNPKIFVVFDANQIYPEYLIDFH

[3] = target: T2, Protein mono-ADP-ribosyltransferase PARP12 (Homo sapiens) (UniProt Q9H0J9); assay: as §1, with “His-GST” for “GST”, “PARP12 (500” for “PARP2 (2”, “701” for “583”
T2 sequence (whole entry): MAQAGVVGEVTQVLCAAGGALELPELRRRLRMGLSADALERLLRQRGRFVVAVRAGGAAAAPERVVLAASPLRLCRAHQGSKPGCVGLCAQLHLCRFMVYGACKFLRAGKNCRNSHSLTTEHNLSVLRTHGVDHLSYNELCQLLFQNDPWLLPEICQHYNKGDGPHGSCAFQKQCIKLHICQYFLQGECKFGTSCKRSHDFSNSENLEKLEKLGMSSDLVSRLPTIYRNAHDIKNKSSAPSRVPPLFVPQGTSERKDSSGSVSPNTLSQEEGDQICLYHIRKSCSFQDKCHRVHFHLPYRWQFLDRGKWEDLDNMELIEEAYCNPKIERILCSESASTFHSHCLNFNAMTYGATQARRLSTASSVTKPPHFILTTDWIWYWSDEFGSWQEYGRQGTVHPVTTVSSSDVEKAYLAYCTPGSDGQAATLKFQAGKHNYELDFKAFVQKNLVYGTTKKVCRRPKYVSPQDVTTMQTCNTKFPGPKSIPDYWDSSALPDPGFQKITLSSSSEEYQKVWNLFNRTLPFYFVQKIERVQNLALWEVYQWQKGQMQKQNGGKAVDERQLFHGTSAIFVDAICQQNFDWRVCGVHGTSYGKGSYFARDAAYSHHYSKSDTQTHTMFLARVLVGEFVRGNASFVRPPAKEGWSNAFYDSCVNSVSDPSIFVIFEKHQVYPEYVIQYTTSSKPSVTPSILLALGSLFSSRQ

[4] = target: T3, Poly [ADP-ribose] polymerase tankyrase-1 (Homo sapiens) (UniProt O95271); assay: as §1, with “GST-tagged” for “GST tagged”, “TNKS1 (1001” for “PARP2 (2”, “1327” for “583”, “baculovirus-infected” for “baculovirus infected”
T3 sequence (whole entry): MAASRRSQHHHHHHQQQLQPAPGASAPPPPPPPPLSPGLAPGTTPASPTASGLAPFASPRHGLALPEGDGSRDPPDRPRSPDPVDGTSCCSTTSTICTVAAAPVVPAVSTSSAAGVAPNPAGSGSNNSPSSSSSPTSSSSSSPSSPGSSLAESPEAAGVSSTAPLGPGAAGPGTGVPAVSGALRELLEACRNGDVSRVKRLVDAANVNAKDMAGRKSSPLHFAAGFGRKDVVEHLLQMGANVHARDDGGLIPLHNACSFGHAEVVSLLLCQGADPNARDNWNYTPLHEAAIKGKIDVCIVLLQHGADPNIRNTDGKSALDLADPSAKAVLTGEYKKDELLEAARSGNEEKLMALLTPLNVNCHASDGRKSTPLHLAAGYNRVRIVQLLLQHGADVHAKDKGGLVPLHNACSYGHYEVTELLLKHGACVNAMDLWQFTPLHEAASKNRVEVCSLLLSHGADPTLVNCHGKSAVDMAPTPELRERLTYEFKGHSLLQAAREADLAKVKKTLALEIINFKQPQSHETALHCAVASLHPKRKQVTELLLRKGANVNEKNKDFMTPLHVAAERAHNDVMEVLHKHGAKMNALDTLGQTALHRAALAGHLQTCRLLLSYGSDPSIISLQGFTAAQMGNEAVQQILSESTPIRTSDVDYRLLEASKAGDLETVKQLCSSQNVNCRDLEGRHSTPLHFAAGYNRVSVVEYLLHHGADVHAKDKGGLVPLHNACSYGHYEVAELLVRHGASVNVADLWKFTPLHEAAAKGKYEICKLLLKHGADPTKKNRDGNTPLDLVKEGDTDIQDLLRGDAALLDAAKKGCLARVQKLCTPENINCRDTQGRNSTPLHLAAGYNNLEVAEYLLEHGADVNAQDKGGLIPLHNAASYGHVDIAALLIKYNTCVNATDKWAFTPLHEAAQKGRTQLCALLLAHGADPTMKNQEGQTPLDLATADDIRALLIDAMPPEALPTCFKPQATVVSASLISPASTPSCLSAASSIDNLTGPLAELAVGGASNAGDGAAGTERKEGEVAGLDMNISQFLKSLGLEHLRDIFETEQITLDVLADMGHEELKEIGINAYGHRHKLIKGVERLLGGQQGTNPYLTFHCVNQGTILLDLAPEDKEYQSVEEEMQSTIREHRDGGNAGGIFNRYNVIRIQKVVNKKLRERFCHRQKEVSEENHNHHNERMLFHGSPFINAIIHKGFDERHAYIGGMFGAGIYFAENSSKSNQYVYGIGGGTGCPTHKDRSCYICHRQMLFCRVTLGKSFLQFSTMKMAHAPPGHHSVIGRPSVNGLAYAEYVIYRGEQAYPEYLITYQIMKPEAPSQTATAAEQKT

[5] = target: Poly [ADP-ribose] polymerase 1 (Homo sapiens) (UniProt P09874); assay: as §1, with “PARP1” for “PARP2”, “1041” for “583”
Chain of Poly [ADP-ribose] polymerase 1 (Homo sapiens) (P09874 whole entry): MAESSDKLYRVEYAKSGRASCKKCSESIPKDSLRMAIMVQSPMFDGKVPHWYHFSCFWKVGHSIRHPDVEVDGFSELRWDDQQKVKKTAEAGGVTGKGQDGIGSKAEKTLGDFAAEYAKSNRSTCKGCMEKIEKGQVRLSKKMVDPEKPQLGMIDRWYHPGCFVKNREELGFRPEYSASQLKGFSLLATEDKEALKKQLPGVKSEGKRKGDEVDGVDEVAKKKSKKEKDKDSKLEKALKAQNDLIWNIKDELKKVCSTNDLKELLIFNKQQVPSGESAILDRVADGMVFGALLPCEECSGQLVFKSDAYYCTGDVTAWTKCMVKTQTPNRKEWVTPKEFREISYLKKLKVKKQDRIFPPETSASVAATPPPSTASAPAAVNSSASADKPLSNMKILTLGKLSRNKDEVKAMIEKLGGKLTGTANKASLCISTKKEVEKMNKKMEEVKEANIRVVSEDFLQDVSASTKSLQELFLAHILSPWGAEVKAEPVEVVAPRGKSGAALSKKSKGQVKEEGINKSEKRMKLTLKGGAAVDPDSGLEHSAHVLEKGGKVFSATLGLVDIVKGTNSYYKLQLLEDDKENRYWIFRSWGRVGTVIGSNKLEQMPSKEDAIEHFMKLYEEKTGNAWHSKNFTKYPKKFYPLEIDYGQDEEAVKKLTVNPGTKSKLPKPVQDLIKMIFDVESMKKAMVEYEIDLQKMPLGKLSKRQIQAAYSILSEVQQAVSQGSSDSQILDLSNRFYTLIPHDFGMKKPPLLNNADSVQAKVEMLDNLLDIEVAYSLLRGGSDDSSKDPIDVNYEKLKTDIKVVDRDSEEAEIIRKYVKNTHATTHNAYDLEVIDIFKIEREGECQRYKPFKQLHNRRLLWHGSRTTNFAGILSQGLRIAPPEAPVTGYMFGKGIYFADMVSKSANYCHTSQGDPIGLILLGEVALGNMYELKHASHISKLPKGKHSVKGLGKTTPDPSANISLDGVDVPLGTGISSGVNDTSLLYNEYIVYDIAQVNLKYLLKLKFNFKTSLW

Chain of Poly [ADP-ribose] polymerase 2 (Homo sapiens) (Q9UGN5 whole entry, the tested form may be a part): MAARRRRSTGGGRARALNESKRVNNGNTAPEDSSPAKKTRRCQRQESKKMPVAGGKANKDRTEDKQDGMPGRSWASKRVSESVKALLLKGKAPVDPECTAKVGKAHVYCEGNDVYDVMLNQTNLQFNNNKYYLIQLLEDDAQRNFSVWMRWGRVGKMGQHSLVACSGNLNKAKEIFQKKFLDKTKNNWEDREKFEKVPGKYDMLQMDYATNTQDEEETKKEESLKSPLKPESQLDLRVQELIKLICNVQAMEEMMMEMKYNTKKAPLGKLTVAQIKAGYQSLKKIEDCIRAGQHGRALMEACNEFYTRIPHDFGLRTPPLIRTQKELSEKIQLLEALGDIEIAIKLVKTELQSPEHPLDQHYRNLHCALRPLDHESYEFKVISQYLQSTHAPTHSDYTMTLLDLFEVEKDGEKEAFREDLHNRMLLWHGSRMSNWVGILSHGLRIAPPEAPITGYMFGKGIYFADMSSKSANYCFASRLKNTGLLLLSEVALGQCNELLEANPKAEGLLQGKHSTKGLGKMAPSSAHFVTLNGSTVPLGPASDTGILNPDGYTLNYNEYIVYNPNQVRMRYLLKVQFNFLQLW

Row | inhibition [1] [%] | inhibition [2] [%] | inhibition [3] [%] | inhibition [4] [%] | inhibition [5] [%] | Structure (SMILES)
1 | 100 | > 50 | 16 | > 50 | > 50 | CC1(CNC(=O)COc2cccc3c2CCCC3=O)CCN(C(=O)CCc2nc3ccccc3[nH]c2=O)CC1
2 | < 25 | < 25 | < 25 | < 25 | < 25 | CNC(=O)[C@H](CNC(=O)CCc1nc2ccccc2[nH]c1=O)NC(=O)c1ccc2c(c1)CCCC2=O
